The values below come from patent US20090215884A1, “METHOD FOR WOUND HEALING” (priority 2005, published 2009).

The test system of one assay is dermal fibroblasts. Description: Dermal fibroblast differentiation (α-smooth muscle actin expression). Format: cell-based, human. The settings on record: absence of TGF-β1. The method, then:
The effects of PEP005 on dermal fibroblast differentiation to myofibroblasts, was examined by the extent of α-smooth muscle actin expression by the differentiating dermal fibroblasts, following stimulation with TGF-β. Following trypsinization, the dermal fibroblasts were suspended in Fibroblast-Serum Containing Medium, containing 10% fetal calf serum, at a cell density of 2.5×10^4 cells/ml. Aliquots (250 μl/well) of the dermal fibroblast cell suspension were seeded into 8-well chamber slides (VWR International Ltd.) and maintained at 37° C., in a 5% CO2/95% air atmosphere, until approximately 30-40% confluent. […] Various controls (three chamber slide per control) were also established, including (i) Fibroblast-Serum Containing Medium alone, (ii) cells in Fibroblast-Serum Containing Medium (cytokeratin or vimentin 1° Ab control), (iii) cells in Fibroblast-Serum Containing Medium, containing 10 ng/ml TGF-β and 1% DMSO, and (iv) cells in Fibroblast-Serum Containing Medium, containing 1% DMSO.
The chamber slides were maintained at 37° C., in a 5% CO2/95% air atmosphere, for 3 days, by which time, the cells had reached approximately 75% confluence. Chamber slides were fixed in 1:1 ice cold, acetone:methanol (300 μl/well) for 20 min and blocked in 1% BSA in PBS, at 4° C., for 1 h. […]

The next assay deals with keratinocytes. Description: Cytokine production by PEP005-treated human keratinocytes. Format: cell-based. Conditions: 6 h, supernatant. The method, then: Cytokine production by PEP005-treated human cells Confluent cultures of Me10538 cells, keratinocytes, fibroblasts and neutrophils were incubated for 6 h in the absence or presence of PEP005 (1-100 ng/ml). The supernatants were harvested and analyzed for the presence of the following cytokines; TNF-α, IL-6 and IL-8 using a multiplex detection kit (Biosource International, Nivelles, Belgium). Units of detected proteins are pg/ml.

Assay [1] has as its system rat full-thickness incisional wounds. Nature of the assay: Rat incisional wound healing model: tensiometric assessment of wound strength. The format is in vivo. Conditions: single topical treatment. An excerpt: In order to examine the effects of PEP005 on the repair of acute (surgical) incisional wounds, involving minimal new tissue generation, the rat, full-thickness incisional wound healing model, was employed.
Adult male Sprague Dawley rats (Harlan U.K. Ltd., Oxfordshire, U.K.), approximately 8-10 weeks old and weighing between 250-300 g, were used in this study. The animals were initially housed in groups of up to four per cage (cage dimensions 40×25×20 cm, with sawdust bedding, changed twice weekly), according to Home Office regulations, in an environment maintained at an ambient temperature of 23° C. with 12-hour light/dark cycles. The animals were provided food (Standard Rodent Diet) and water ad libitum. In order to acclimatize the animals to their surroundings, prior to experimentation, the animals were housed for a minimum of one week without disturbance, other than to refresh their bedding and to replenish their food and water provisions. Following wounding, animals were monitored under individual housed conditions until fully recovered from the procedure. Animals were then maintained individually for a period of 2 weeks (i.e. until their wounds have fully re-epithelialized). After this initial 2-week period, animals were maintained in groups of up to four for the remainder of the study. All animal procedures were performed in a Home Office licensed establishment, under U.K. Home Office Licences (PPL: 40/2650; PIL: 70/4934 and PIL: 60/7661).
Animals were anaesthetized using inhalation of Halothane and air, and the dorsum of each rat shaved and washed with the bactericide, chlorhexidine gluconate (0.05% aqueous). Four full-thickness incisional wounds (1 cm in length, include the panniculus carnosus and hypodermis) were created on the backs of each animal. Wounds remained unsutured (allowed to gape), in order to allow granulation tissue to form within the wounds. Following wounding (day 0), one of the four PEP005 concentrations (PEP005-free, DMSO/isopropanol gel vehicle, 0.01%, 0.028% or 0.05% PEP005) were applied to each wound, whilst non-treated wound controls remained untreated. […]
Immediately after injury, single treatments of the 0.01%, 0.028% PEP005, or DMSO/isopropanol vehicle gels, were applied at volumes of 10 μl per 100 mm^2 (1 μg/10 μl, 2.8 μg/10 μl and 5 μg/10 μl PEP005, respectively), to the marginal skin surrounding each wound, with a total area of 600 mm^2 of marginal skin receiving treatment. […] Rats were maintained in their respective experimental groups for 1, 4 and 12 weeks, when the animals in each group were euthanized and the condition of wound and peri-wound tissues (in terms of viability, erythema, oedema, etc.), monitored at all assessment points, according to Table 2.1. […]

With `C/C=C(/C)C(=O)O[C@H]1C(C)=C[C@]23C(=O)[C@@H](C=C(CO)[C@@H](O)[C@]12O)[C@H]1[C@@H](C[C@H]3C)C1(C)C` [PEP005, ingenol-3-angelate], the “α-smooth muscle actin expression” value in the assay on dermal fibroblasts (1 μg/ml PEP005) and in the assay on dermal fibroblasts (10 μg/ml PEP005) was “detectable α-smooth muscle actin microfilaments” throughout. The IL-8 in the assay with keratinocytes (PEP005 1 ng/ml) came out at 3910 ± 148 pg/mL; in the assay on keratinocytes (PEP005 5 ng/ml), 4775 ± 178 pg/mL; in the assay on keratinocytes (PEP005 10 ng/ml), 3895 ± 198 pg/mL; in the assay with keratinocytes (PEP005 100 ng/ml), 2950 ± 108 pg/mL. Also, the TNFα in the assay with keratinocytes (PEP005 1 ng/ml) turned out to be 510 ± 26 pg/mL; in the assay on keratinocytes (PEP005 5 ng/ml), 847 ± 37 pg/mL; in the assay on keratinocytes (PEP005 10 ng/ml), 498 ± 29 pg/mL; in the assay with keratinocytes (PEP005 100 ng/ml) it was 335 ± 21 pg/mL. In addition, the “mean tensile strength of wound” value in assay [1] (week 4, 0.01%, 0.028%, 0.05% PEP005 gel) is “dose dependent trend, with increasing tensile strength”; in assay [1] (week 12, 0.01% PEP005 gel), “increasing”; in assay [1] (week 12, 0.028% PEP005 gel), “declining at 0.028% to control levels”; in assay [1] (week 12, 0.05% PEP005 gel), “another increase”.
